The test system of one data set is MDA-MB-231. The data set can be described thus: Antiproliferative activity against human MDA-MB-231 cells assessed as inhibition of cell growth after 72 hrs by MTT assay. Format: functional, cell-based. The settings on record: MDA-MB-231, 72 h.
A further data set concerns A549. The data set can be described thus: Antiproliferative activity against human A549 cells assessed as inhibition of cell growth after 72 hrs by MTT assay. The format is functional, cell-based. The settings on record: A549, 72 h. For orientation: Formazan colour is commonly taken as a measure of viable cells.
The subject of the next data set is DU-145. In words: Antiproliferative activity against human DU-145 cells assessed as inhibition of cell growth after 72 hrs by MTT assay. The settings on record: DU-145, 72 h. The format is functional, cell-based.
In data set [1] the test system is PC-3. The data set can be described thus: Antiproliferative activity against human PC-3 cells assessed as inhibition of cell growth after 72 hrs by MTT assay. The format is functional, cell-based. The settings on record: PC-3, 72 h.
The nature of data set [2]: Toxicity in ICR mouse assessed as effect on ALT level at 5 mg/kg, ip measured for 14 days. The settings on record: in vivo, 336 h, time 14 day. Format: organism-based.
Data set [3] deals with RM1. In words: Antitumor immunity against mouse RM1 cells homografted in C57BL/6 mouse model assessed as increase in tumor infiltrating helper T lymphocytes in spleen at 5 mg/kg, iv administered every two days for 14 days by flow cytometry analysis. The format is functional, organism-based. The settings on record: time 14.0 day. (In general: A flow cytometer gives signals particle by particle.)

For data set [4], the system named is RM1. In words: Antitumor immunity against mouse RM1 cells homografted in C57BL/6 mouse model assessed as increase in activation of tumor infiltrating lymphocytes in spleen at 5 mg/kg, iv administered every two days for 14 days by flow cytometry analysis. Format: functional, organism-based. The settings on record: time 14.0 day.
Data set [5] has as its system RM1. The data set can be described thus: Antitumor immunity against mouse RM1 cells homografted in C57BL/6 mouse model assessed as increase in tumor infiltrating CD3+CD8+T cells (CTLs) in spleen at 5 mg/kg, iv administered every two days for 14 days by flow cytometry analysis. The format is functional, organism-based. The settings on record: time 14.0 day.
The nature of data set [6]: Antitumor activity against mouse RM1 cells homografted in C57BL/6 mouse model assessed as tumor growth inhibition at 5 mg/kg, iv administered every two days for 14 days by vernier caliper based analysis relative to control. The format is functional. The settings on record: RM1, 336 h, time 14 day, read-out: TGI.
Data set [7] is described as follows: Toxicity in ICR mouse assessed as bone marrow suppression by measuring hemoglobin count at 5 mg/kg, ip measured for 14 days. The format is organism-based. The settings on record: in vivo, 336 h, time 14 day.
Data set [8] can be described thus: Toxicity in ICR mouse assessed as decrease in lymphocytes at 5 mg/kg, ip measured for 14 days. The settings on record: in vivo, 336 h, time 14 day. Format: organism-based.
Data set [9] can be described thus: Antitumor immunity against mouse RM1 cells homografted in C57BL/6 mouse model assessed as increase in tumor infiltrating lymphocytes at 5 mg/kg, iv administered every two days for 14 days by flow cytometry analysis (reference value: 5.26%). Format: functional. The settings on record: time 14 day.
Data set [10] is described as follows: Antitumor immunity against mouse RM1 cells homografted in C57BL/6 mouse model assessed as increase in tumor infiltrating helper T lymphocytes at 5 mg/kg, iv administered every two days for 14 days by flow cytometry analysis (reference value: 6.59%). The settings on record: time 14 day. Format: functional.
Data set [11] can be described thus: Antitumor activity against mouse RM1 cells xenografted in immunocompetent […] mouse model assessed as tumor growth inhibition at 5 mg/kg, iv measured every two days for 14 days relative to control. Format: functional. The settings on record: RM1, 336 h, time 14 day, read-out: TGI.
Data set [12] is described as follows: Antitumor immunity against mouse RM1 cells homografted in C57BL/6 mouse model assessed as increase in tumor infiltrating CD3+CD8+T cells (CTLs) at 5 mg/kg, iv administered every two days for 14 days by flow cytometry analysis (reference value: 0.89%). The format is functional. The settings on record: time 14 day.
Data set [13] in a line: Toxicity in ICR mouse assessed as bone marrow suppression by measuring WBC level at 5 mg/kg, ip measured for 14 days. The settings on record: in vivo, 336 h, time 14 day. Format: organism-based.
Data set [14] in a line: Toxicity in ICR mouse assessed as bone marrow suppression by measuring RBC level at 5 mg/kg, ip measured for 14 days. The format is organism-based, Erythrocyte. The settings on record: in vivo, 336 h, time 14 day.
In data set [15] the test system is PC-3. In words: Inhibition of autophagy in human PC-3 cells assessed as increase in number of autophagosomes at 50 uM measured after 3 hrs by immunofluorescence imaging based analysis. The format is functional, cell-based.
Data set [16] can be described thus: Anticancer activity against mouse RM1 cells assessed as increase in mean fluorescence intensity at 2 nM measured after 24 hrs by flow cytometry analysis (reference value: 7.40+/-3.96 ). Format: functional.

Active and inactive are the calls of the source. The rule behind the calls is not given here.

The term IC50 denotes the concentration needed to halve the response being measured.

As to `COc1cc(-c2nc(C(N)=O)cc3cc(OCCCN4CCOCC4)ccc23)cc(OC)c1OC`, the IC50 in the data set with MDA-MB-231, with A549, in the data set with DU-145 and in the data set on PC-3 [1] was over 10000 nM in each case.
For the compound `COc1c(I)cc(-c2nc(C(N)=O)cc3cc4c(cc23)OCCO4)cc1I`, the IC50 in the data set on MDA-MB-231 was 730 nM; with A549 it was 2150 nM; with DU-145, 3220 nM; in the data set with PC-3 [1] it was 1980 nM.
The like results for `COc1cc(-c2nc(C(N)=O)cc3cc4c(cc23)OCCO4)cc2c1OCO2` were, in that order, 1310 nM, 2010 nM, 750 nM and 1120 nM.
`COc1cc(-c2nc(CO)cc3cc4c(cc23)OCCO4)cc(OC)c1OC`: the IC50 was determined as 1350 nM in the data set on MDA-MB-231, 1260 nM with A549, 1460 nM in the data set with DU-145 and 1630 nM with PC-3 [1].
For the compound `COc1cc(-c2nc(C(N)=O)cc3cc4c(cc23)OCCO4)cc(Cl)c1OC`, the concentration for half-maximal inhibition (IC50) in the data set with MDA-MB-231 stood at 210 nM; in the data set on A549, 160 nM; in the data set on DU-145, 270 nM; in the data set on PC-3 [1], 200 nM.
The corresponding values for `COc1cc(-c2nc(C(=O)NO)cc3cc4c(cc23)OCCO4)cc(OC)c1OC` are 1580 nM, 1750 nM, 1940 nM and 1480 nM.
As to `CC(=O)O[C@H]1C(=O)[C@@]2(C)[C@H]([C@H](OC(=O)c3ccccc3)[C@]3(O)C[C@H](OC(=O)[C@H](O)[C@@H](NC(=O)c4ccccc4)c4ccccc4)C(C)=C1C3(C)C)[C@]1(OC(C)=O)CO[C@@H]1C[C@@H]2O` [PACLITAXEL], the Activity result in data set [2] is reported as “Toxic”; in [7], “Toxic”; in data set [8] it was “Toxic”; in data set [9], 5.68%; in data set [10], 9.81%; in data set [12], 1.16%. The Activity entry in [13] and in [14] was “Toxic” throughout. Besides, the outcome in the data set on RM1 [3] and in the data set on RM1 [5] was inactive. Also, the outcome in the data set on RM1 [4] was Active. Moreover, the figures for the inhibition in vivo at 5 mg/kg in data set [6] and in data set [11] were 54.6% and 55.5%, respectively.
Take `COc1cc(-c2nc(C(N)=O)cc3cc4c(cc23)OCCO4)cc2c1OCCCO2`: the 50% inhibitory concentration (IC50) in the data set on MDA-MB-231 is over 10000 nM; in the data set with A549 it was 2950 nM; with DU-145, 8350 nM; in the data set on PC-3 [1] it was 3340 nM.
In the case of `COc1cc(-c2nc(C(N)=O)cc3cc4c(cc23)OCCO4)cc2c1OCCO2`, the IC50 with MDA-MB-231 came out at 750 nM; in the data set with A549, 1850 nM; in the data set on DU-145 it was 1560 nM; in the data set on PC-3 [1], 1350 nM.
Take `CCCOc1ccc2c(-c3cc(OC)c(OC)c(OC)c3)nc(C(N)=O)cc2c1`: the IC50 in the data set with MDA-MB-231, in the data set on A549, in the data set with DU-145 and in the data set on PC-3 [1] was over 10000 nM in each case.
For `COc1ccc2c(-c3cc(OC)c(OC)c(OC)c3)nc(C(N)=O)cc2c1`, the IC50 in the data set with MDA-MB-231, in the data set on A549, in the data set with DU-145 and with PC-3 [1] was over 10000 nM throughout.
`CCOc1ccc2c(-c3cc(OC)c(OC)c(OC)c3)nc(C(N)=O)cc2c1`: the half-maximal inhibitory concentration (IC50) with MDA-MB-231, in the data set with A549, with DU-145 and with PC-3 [1] was over 10000 nM throughout.
As to `COC(=O)c1cc2cc3c(cc2c(-c2cc(OC)c(OC)c(OC)c2)n1)OCCO3`, the IC50 worked out at 3210 nM with MDA-MB-231, 1530 nM in the data set on A549, 2100 nM in the data set on DU-145 and 1570 nM with PC-3 [1].
As for `COc1cc(-c2nc(C(N)=O)cc3cc4c(cc23)OCCO4)cc(OC)c1OC`, the IC50 was 1270 nM in the data set on MDA-MB-231, 840 nM in the data set with A549, 1050 nM in the data set with DU-145 and 1180 nM in the data set with PC-3 [1].
`COc1cc2c(O)c3c(c(-c4ccc5c(c4)OCO5)c2cc1OC)C(=O)OC3` [DIPHYLLIN]: the IC50 in the data set with MDA-MB-231 worked out at 2270 nM; in the data set on A549 it was 890 nM; in the data set on DU-145, 380 nM; in the data set with PC-3 [1] it was 210 nM.
For the compound `CCN(CC)CCCC(C)Nc1ccnc2cc(Cl)ccc12` (stereo unspecified), the inhibition entry in the data set with PC-3 [15] was “Active”.
Turning to `COc1cc(-c2nc(C(N)=O)cc3cc4c(cc23)OCCO4)cc(I)c1OC`, the IC50 came out at 300 nM in the data set with MDA-MB-231, 180 nM in the data set with A549, 300 nM in the data set on DU-145 and 170 nM with PC-3 [1].
For the compound `CCOc1cc(-c2nc(C(N)=O)cc3cc4c(cc23)OCCO4)cc(OC)c1OC`, the IC50 in the data set on MDA-MB-231 is 480 nM; with A549, 370 nM; in the data set on DU-145, 540 nM; in the data set with PC-3 [1] it was 390 nM.
On to `CCCOc1cc(-c2nc(C(N)=O)cc3cc4c(cc23)OCCO4)cc(OC)c1OC`, for which the IC50 was over 10000 nM in the data set with MDA-MB-231, 5560 nM in the data set with A549, over 10000 nM with DU-145 and over 10000 nM with PC-3 [1].
Turning to `CCCOc1c(OC)cc(-c2nc(C(N)=O)cc3cc4c(cc23)OCCO4)cc1OC`, the IC50 was determined as 2420 nM in the data set on MDA-MB-231, 1390 nM in the data set on A549, 1640 nM with DU-145 and 1990 nM in the data set on PC-3 [1].
For the compound `COc1cc2c(c(OC)c1OC)-c1ccc(OC)c(=O)cc1[C@@H](NC(C)=O)CC2` [COLCHICINE], the IC50 was determined as 120 nM in the data set with MDA-MB-231, 70 nM in the data set on DU-145 and 50 nM in the data set on PC-3 [1].
Consider `COc1c(Br)cc(-c2nc(C(N)=O)cc3cc4c(cc23)OCCO4)cc1Br`, for which the 50% inhibitory concentration (IC50) with MDA-MB-231 stood at 400 nM; in the data set with A549 it was 200 nM; in the data set with DU-145 it was 320 nM; with PC-3 [1] it was 270 nM.
The like results for `COc1c(Cl)cc(-c2nc(C(N)=O)cc3cc4c(cc23)OCCO4)cc1Cl` were, in that order, 870 nM, 250 nM, 490 nM and 640 nM.
With `COc1cccc2c1C(=O)c1c(O)c3c(c(O)c1C2=O)C[C@@](O)(C(=O)CO)C[C@@H]3O[C@H]1C[C@H](N)[C@H](O)[C@H](C)O1` [DOXORUBICIN], in [16], the Flu intensity stood at 184.3.
Turning to `COc1cc(-c2nc(C(=O)O)cc3cc4c(cc23)OCCO4)cc(OC)c1OC`, the IC50 in the data set with MDA-MB-231, in the data set on A549, in the data set with DU-145 and in the data set with PC-3 [1] was over 10000 nM in each case.
Regarding `CCOc1c(OC)cc(-c2nc(C(N)=O)cc3cc4c(cc23)OCCO4)cc1OC`, the IC50 in the data set with MDA-MB-231, with A549, in the data set on DU-145 and in the data set with PC-3 [1] was over 10000 nM throughout.
